# Experimental data from patent US6750228B1, “Aromatic sulfone hydroxamic acid metalloprotease inhibitor” (priority 1997, dated 2004).
# Like-named read-outs stand apart in the source and are kept apart here.
# Key:
# Assay in all cases: biochemical
# MMP-2 = biological target: T1, MMP-2 (Homo sapiens, UniProt P08253); settings: read-out: MMP-2 IC50
# T1 construct: made in house; provided by Dr. Gregory Goldberg, Washington University
# T1 sequence (P08253 110-660): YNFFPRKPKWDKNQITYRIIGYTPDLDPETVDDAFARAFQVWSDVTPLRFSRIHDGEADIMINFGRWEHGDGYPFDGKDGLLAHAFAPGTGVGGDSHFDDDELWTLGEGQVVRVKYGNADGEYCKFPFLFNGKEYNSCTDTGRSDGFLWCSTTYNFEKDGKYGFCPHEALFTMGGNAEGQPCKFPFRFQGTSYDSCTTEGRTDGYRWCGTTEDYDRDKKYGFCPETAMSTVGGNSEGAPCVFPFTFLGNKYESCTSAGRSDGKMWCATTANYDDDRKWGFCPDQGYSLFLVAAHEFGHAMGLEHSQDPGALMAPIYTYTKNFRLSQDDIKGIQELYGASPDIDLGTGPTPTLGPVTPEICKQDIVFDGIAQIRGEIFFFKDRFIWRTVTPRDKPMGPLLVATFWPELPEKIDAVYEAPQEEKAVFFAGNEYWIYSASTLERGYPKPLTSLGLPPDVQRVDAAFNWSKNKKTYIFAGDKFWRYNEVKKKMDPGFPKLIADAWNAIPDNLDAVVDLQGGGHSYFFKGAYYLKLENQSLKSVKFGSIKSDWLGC
# How it was run: (§1)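 Assay buffer 100 mM Tris-HCl, 100 mM NaCl, 10 mM CaCl2, pH 7.5. Activated MMP + inhibitor, 5 min RT; then methoxycoumarin peptide substrate, 4 μM final. Readout fluorescence; IC50 calculated.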
# MMP-1 = biological target: T2, MMP-1 (Homo sapiens, UniProt P03956); settings: read-out: MMP-1 IC50
# T2 construct: made in house; host or cells: transfected HT-1080 cells (provided by Dr. Harold Welgus, Washington University)
# T2 sequence (P03956 100-469): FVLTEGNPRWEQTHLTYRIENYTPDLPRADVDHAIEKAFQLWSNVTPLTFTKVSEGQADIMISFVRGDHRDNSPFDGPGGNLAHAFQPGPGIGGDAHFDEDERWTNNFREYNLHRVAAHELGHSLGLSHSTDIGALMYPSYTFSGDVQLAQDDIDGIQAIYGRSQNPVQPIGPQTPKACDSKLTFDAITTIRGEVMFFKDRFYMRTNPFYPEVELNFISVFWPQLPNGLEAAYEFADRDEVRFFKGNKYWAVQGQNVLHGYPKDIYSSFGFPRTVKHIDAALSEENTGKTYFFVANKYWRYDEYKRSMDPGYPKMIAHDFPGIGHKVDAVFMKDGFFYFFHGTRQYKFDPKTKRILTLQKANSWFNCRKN
# How it was run: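 APMA- or trypsin-activated enzymes were preincubated with inhibitor for 5 min at room temperature, then the fluorogenic substrate MCA-Pro-Leu-Gly-Leu-Dpa-Ala-Arg-NH2 was added to a final 4 μM.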
# MMP-13 = biological target: T3, MMP-13 (Homo sapiens, UniProt P45452); settings: read-out: MMP-13 IC50
# T3 construct: made in house; host or cells: baculovirus / insect cells
# How it was run: as §1
# [1] = recombinant human MMP-2, MCA peptide substrate 4 μM, pH 7.5, room temperature
# [2] = recombinant human MMP-1, MCA peptide substrate 4 μM, pH 7.5, room temperature
# [3] = recombinant human MMP-13, MCA peptide substrate 4 μM, pH 7.5, room temperature
Compound,IC50 (MMP-2; [1]) [nM],IC50 (MMP-1; [2]) [nM],IC50 (MMP-13; [3]) [nM],IC50 (MMP-2) [nM],IC50 (MMP-1) [nM],IC50 (MMP-13) [nM]
O=C(NO)C1(S(=O)(=O)c2ccc(N3CCC(CCOCc4cccc(C(F)(F)F)c4)CC3)cc2)CCOCC1 [Example 503],50,> 10000,10,–,–,–
C[C@H]1C[C@H](C)CN(C(=O)C2CCN(c3ccc(S(=O)(=O)C4(C(=O)NO)CCN(C(=O)CCl)CC4)cc3)CC2)C1 [Example 275],–,–,–,> 10000,> 10000,70
O=C(c1cccc(C(F)(F)F)c1)C1CCN(c2ccc(S(=O)(=O)C3(C(=O)NO)CCOCC3)cc2)CC1 [Example 727],240,> 10000,34.9,–,–,–
CC1CC(C)CN(C(=O)C2CCN(c3ccc(S(=O)(=O)C4(C(=O)NO)CCN(C(=O)CNCc5cccnc5)CC4)cc3)CC2)C1 (stereo not drawn) [Example 278],> 10000,> 10000,19.3,–,–,–
C[C@@H]1C[C@H](C)CN(C(=O)C2CCN(c3ccc(S(=O)(=O)C4(C(=O)NO)CCN(C(=O)CCl)CC4)cc3)CC2)C1 [Example 276],> 10000,> 10000,37.3,–,–,–
O=C(c1ccc(Cl)c(Cl)c1)C1CCN(c2ccc(S(=O)(=O)C3(C(=O)NO)CCOCC3)cc2)CC1 [Example 846],186,> 10000,4.5,–,–,–
O=C(Nc1ccccc1C(F)(F)F)N1CCC(C(=O)NO)(S(=O)(=O)c2ccc(Oc3ccc(OC(F)(F)F)cc3)cc2)CC1 [Example 364],0.2,> 10000,1,–,–,–
O=C(NO)C1(S(=O)(=O)c2ccc(N3CCN(Cc4ccccc4)CC3)cc2)CCOCC1 [Example 538],370,> 10000,80,–,–,–
CCCCCC(=O)N1CCN(c2ccc(S(=O)(=O)C3(C(=O)NO)CCOCC3)cc2)CC1 [Example 592],690,> 10000,57,–,–,–
O=C(NO)C1(S(=O)(=O)c2ccc(N3CCC(Oc4ccc(Br)cc4)CC3)cc2)CCOCC1 [Example 479],60,> 10000,5,–,–,–
O=C(NO)C1(S(=O)(=O)c2ccc(N3CC[C@@H](COCc4ccc(OC(F)(F)F)cc4)C3)cc2)CCOCC1 [Example 527],9000,> 10000,6700,–,–,–
O=C(NO)C1(S(=O)(=O)c2ccc(N3CCC(Oc4ccc(Cl)cc4F)CC3)cc2)CCOCC1 [Example 641],13.7,> 10000,4,–,–,–
COc1ccc(C(=O)C2CCN(c3ccc(S(=O)(=O)C4(C(=O)NO)CCN(C(=O)OCc5ccccc5)CC4)cc3)CC2)cc1 [Example 435],1500,> 10000,5.9,–,–,–
CC1CC(C)CN(C(=O)C2CCN(c3ccc(S(=O)(=O)C4(C(=O)NO)CCN(C(=O)CNCCc5c[nH]cn5)CC4)cc3)CC2)C1 (stereo not drawn) [Example 281],> 10000,> 10000,105,–,–,–
CCCCCOc1ccc(COC2CCN(c3ccc(S(=O)(=O)C4(C(=O)NO)CCOCC4)cc3)CC2)cc1 [Example 477],160,> 10000,11.3,–,–,–
O=C(NO)C1(S(=O)(=O)c2ccc(N3CCC(c4cccc5c4CCCC5)CC3)cc2)CCOCC1 [Example 473],3300,> 10000,160,–,–,–
COc1cccc(S(=O)(=O)N2CCN(c3ccc(S(=O)(=O)C4(C(=O)NO)CCOCC4)cc3)CC2)c1 [Example 696],140,> 10000,10,–,–,–
CC1CC(C)CN(C(=O)C2CCN(c3ccc(S(=O)(=O)C4(C(=O)NO)CCN(C(=O)CN(C)C)CC4)cc3)CC2)C1 (stereo not drawn) [Example 294],> 10000,> 1000,59.1,–,–,–
O=C(NO)C1(S(=O)(=O)c2ccc(N3CC4CC3CN4Cc3ccccc3)cc2)CCOCC1 (stereo not drawn) [Example 493],> 10000,> 10000,> 10000,–,–,–

Compound,IC50 (MMP-2; [1]) [nM],IC50 (MMP-1; [2]) [nM],IC50 (MMP-13; [3]) [nM],IC50 (MMP-2) [nM],IC50 (MMP-1) [nM],IC50 (MMP-13) [nM]
O=C(NO)C1(S(=O)(=O)c2ccc(N3CCC(Oc4cccc5ccccc45)CC3)cc2)CCOCC1 [Example 614],25.4,> 10000,22,–,–,–
O=C(NO)C1(S(=O)(=O)c2ccc(N3CCC(Oc4c(Cl)cc(C(F)(F)F)cc4Cl)CC3)cc2)CCOCC1 [Example 570],> 10000,> 10000,290,–,–,–
COc1cc2c(cc1OC)CN(c1ccc(S(=O)(=O)C3(C(=O)NO)CCN(C4CC4)CC3)cc1)CC2 [Example 464],400,> 10000,120,–,–,–
O=C(NO)C1(S(=O)(=O)c2ccc(N3CCN(c4ccc(Cl)cc4)CC3)cc2)CCOCC1 [Example 659],3.7,> 10000,1,–,–,–
CN(C)c1ccc(NC(=O)C2CCN(c3ccc(S(=O)(=O)C4(C(=O)NO)CCOCC4)cc3)CC2)cc1 [Example 78],730,> 10000,11.7,–,–,–
O=C(NO)C1(S(=O)(=O)c2ccc(N3CCC(Sc4ccc(OC(F)(F)F)cc4)CC3)cc2)CCN(C2CC2)CC1 [Example 415],246,> 10000,50.4,–,–,–
CCC(C)CCOCc1ccc(COC2CCN(c3ccc(S(=O)(=O)C4(C(=O)NO)CCOCC4)cc3)CC2)cc1 (stereo not drawn) [Example 603],2300,> 10000,15.8,–,–,–
CCCN(CC(=O)N1CCC(C(=O)NO)(S(=O)(=O)c2ccc(Oc3ccc(C(F)(F)F)cc3)cc2)CC1)CC1CC1 [Example 331],0.2,> 10000,0.7,–,–,–
O=C(NO)C1(S(=O)(=O)c2ccc(N3CCC(Oc4ccc(Cl)cc4)CC3)cc2)CCOCC1 [Example 615],11,> 10000,3.1,–,–,–
Cc1ccc(C(=O)C2CCN(c3ccc(S(=O)(=O)C4(C(=O)NO)CCOCC4)cc3)CC2)cc1 [Example 652],82,> 10000,0.4,–,–,–
O=C(NCc1ccccc1)OC1CCN(c2ccc(S(=O)(=O)C3(C(=O)NO)CCOCC3)cc2)CC1 [Example 520],250,> 10000,22.5,–,–,–
O=C(NC1CCN(c2ccc(S(=O)(=O)C3(C(=O)NO)CCOCC3)cc2)CC1)c1ccc(OC(F)(F)F)cc1 [Example 752],271,> 10000,14.8,–,–,–
CC(C)(C)c1ccc(C(=O)C2CCN(c3ccc(S(=O)(=O)C4(C(=O)NO)CCOCC4)cc3)CC2)cc1 [Example 789],3700,–,12.2,–,> 10000,–
O=C(NO)C1(S(=O)(=O)c2ccc(Oc3ccc(C(F)(F)F)cc3)cc2)CCN(c2ncccc2C(F)(F)F)CC1 [Example 375],15.6,> 10000,16.9,–,–,–
"C[C@H]1C[C@H](C)CN(C(=O)C2CCN(c3ccc(S(=O)(=O)C4(C(=O)NO)CCN(C(=O)OC(C)(C)C)CC4)cc3)CC2)C1 (relative stereo) [Example 239, rel-1,1-Dimethylethyl 4-[[4-[4-[[(3R,5R)-3,5-Dimethyl-1-piperidinyl]carbonyl]-1-piperidinyl]-phenyl]sulfonyl]-4-[(hydroxyamino)carbonyl]-1-piperidinecarboxylate]",–,–,–,8300,> 10000,9
Tetrahydro-4-[[4-(pentaflourooxy)phenyl]sulfonyl]-2H-thiopyran-4-carboxamide [Example 225],41.8,> 10000,180,–,–,–
C=Cc1ccc(C(=O)C2CCN(c3ccc(S(=O)(=O)C4(C(=O)NO)CCOCC4)cc3)CC2)cc1 [Example 787],175,> 10000,1.2,–,–,–
CCN(CC)Cc1ccc(COC2CCN(c3ccc(S(=O)(=O)C4(C(=O)NO)CCOCC4)cc3)CC2)cc1 [Example 523],190,> 10000,2.4,–,–,–
COc1ccc(Oc2ccc(S(=O)(=O)C3(C(=O)NO)CCS(=O)(=O)CC3)cc2)cc1 [Example 156],–,–,–,0.45,> 10000,2.2
